Data taken from patent publication US9955691B2, “Macrocyclic picolinamides as fungicides” (DOW AGROSCIENCES LLC, priority 2014, dated 2018).
Read-outs that look alike come from different tables or passages of the source.

Columns and labels:
[1] = test system: Mycosphaerella graminicola; Anamorph: Septoria tritici; experiment: Fungicidal activity: Leaf Blotch of Wheat (SEPTTR); type: in vivo; conditions: Zymoseptoria tritici, wheat leaf blotch; for pest or weed control at 100 µg/mL: High Volume (100 ppm); for pest or weed control at 121.5 g/ha: Low Volume (121.5 g/H)
Outline: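 Compounds were dissolved in acetone, diluted with nine volumes of water containing 110 ppm Triton X-100, and sprayed to run-off on first-leaf Yuma wheat seedlings inoculated with Septoria tritici spores before or after treatment. Plants were held in a dew chamber, then a 20° C. greenhouse. Percent control was derived from disease severity relative to untreated plants.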

[2] = test system: Magnaporthe grisea; Anamorph: Pyricularia oryzae; type: in vivo; conditions: 100 ppm, 1 DP (1 Day Protectant), rice
Puccinia triticina = experiment: Fungicidal activity: Wheat Brown Rust (PUCCRT); type: in vivo; conditions: for pest or weed control at 100 µg/mL: High Volume (100 ppm); for pest or weed control at 121.5 g/ha: Low Volume (121.5 g/H)
Outline: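 Wheat seedlings (Yuma, first leaf) sprayed to run-off with compound in acetone/water with Triton X-100, inoculated with Puccinia triticina before or after treatment. Held overnight in dark dew at 22° C, then greenhouse at 24° C; percent disease control from severity versus untreated plants.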

Cercospora beticola = experiment: Fungicidal activity: Leaf Spot of Sugar Beets (CERCBE); type: in vivo; conditions: 100 ppm, 1 DP (1 Day Protectant), sugar beet
Experimental: Technical grades of materials were dissolved in acetone, which were then mixed with nine volumes of water containing 110 ppm Triton X-100. The fungicide solutions were applied onto wheat seedlings using an automated booth sprayer to run-off. All sprayed plants were allowed to air dry prior to further handling. All fungicides were evaluated using the aforementioned method for their activity vs. all target diseases, unless stated otherwise. Wheat leaf blotch and brown rust activity were also evaluated using track spray applications, in which case the fungicides were formulated as EC formulations, containing 0.1% Trycol 5941 in the spray solutions. Wheat plants (variety Yuma) were grown from seed in a greenhouse in 50% mineral soil/50% soil-less Metro mix until the first leaf was fully emerged, with 7-10 seedlings per pot. These plants were inoculated with an aqueous spore suspension of Septoria tritici either prior to or after fungicide treatments. After inoculation the plants were kept in 100% relative humidity (one day in a dark dew chamber followed by two to three days in a lighted dew chamber at 20° C.) to permit spores to germinate and infect the leaf. The plants were then transferred to a greenhouse set at 20° C. for disease to develop. When disease symptoms were fully expressed on the 1st leaves of untreated plants, infection levels were assessed on a scale of 0 to 100 percent disease severity. Percent disease control was calculated using the ratio of disease severity on treated plants relative to untreated plants. Evaluation of Fungicidal Activity: Leaf Spot of Sugar Beets (Cercospora beticola; Bayer Code CERCBE) Sugar beet plants (variety HH88) were grown in soil-less Metro mix and trimmed regularly to maintain a uniform plant size prior to test. Plants were inoculated with a spore suspension 24 hr after fungicide treatments. Inoculated plants were kept in a dew chamber at 22° C. for 48 hr then incubated in a greenhouse set at 24° C. under a clear plastic hood with bottom ventilation until disease symptoms were fully expressed. Fungicide formulation, application and disease assessment on the sprayed leaves followed the procedures as described in the Example A.

[3] = 24 h, 1 Day Protectant, read-out: SEPTTR 1 DP disease control
[4] = 72 h, 3 Day Curative, read-out: SEPTTR 3 DC disease control
[5] = 24 h, 1 Day Protectant, read-out: PUCCRT 1 DP disease control
[6] = 72 h, 3 Day Curative, read-out: PUCCRT 3 DC disease control

Row | Compound | melting point [°C] | pest or weed control at 100 µg/mL [1, 3] [%] | pest or weed control at 121.5 g/ha [1, 3] [%] | pest or weed control at 100 µg/mL [1, 4] [%] | pest or weed control at 121.5 g/ha [1, 4] [%] | PYRIOR disease control rating [2] | pest or weed control at 100 µg/mL (Puccinia triticina; [5]) [%] | pest or weed control at 121.5 g/ha (Puccinia triticina; [5]) [%] | pest or weed control at 100 µg/mL (Puccinia triticina; [6]) [%] | pest or weed control at 121.5 g/ha (Puccinia triticina; [6]) [%] | CERCBE disease control rating (Cercospora beticola)
1 | COc1ccnc(C(=O)N[C@H]2COC[C@H](Cc3ccccc3)[C@@H](Cc3ccccc3)[C@H](C)OC2=O)c1OCOC(C)=O [Cmpd. 3, ((2-(((3S,7R,8R,9S)-7,8-dibenzyl-9-methyl-2-oxo-1,5-dioxonan-3-yl)carbamoyl)-4-methoxypyridin-3-yl)oxy)methyl acetate] | 56 to 60 | > 70 | > 70 | > 70 | > 70 | A (>70) | > 70 | > 70 | < 70 | > 70 | 
2 | CCCC[C@@H]1[C@@H](Cc2ccccc2)COC[C@H](NC(=O)c2nccc(OC)c2OCOC(=O)C(C)C)C(=O)O[C@H]1C [compound 1] |  | > 70 | > 70 | > 70 | > 70 | A (>70) | > 70 | > 70 | > 70 | < 70 | A (>70)
3 | COc1ccnc(C(=O)N[C@H]2COC[C@H](c3ccccc3)[C@@H](c3ccccc3)[C@H](C)OC2=O)c1OCOC(C)=O [compound 7] | 59 to 64 | > 70 | > 70 | > 70 | > 70 | A (>70) | > 70 | > 70 | > 70 | > 70 | A (>70)
4 | CCCC[C@@H]1[C@@H](Cc2ccc(C(F)(F)F)cc2)COC[C@H](NC(=O)c2nccc(OC)c2OCOC(C)=O)C(=O)O[C@H]1C [compound 16] |  |  | > 70 |  | > 70 |  |  | > 70 |  | > 70 | A (>70)
5 | COc1ccnc(C(=O)N[C@H]2COC[C@H](Cc3ccccc3)[C@@H](Cc3ccccc3)[C@H](C)OC2=O)c1OC(C)=O [compound 27] | 67 to 71 |  | > 70 |  | > 70 | A (>70) |  | > 70 |  | > 70 | A (>70)
6 | COc1ccnc(C(=O)N[C@H]2COC[C@H](CC3CC3)[C@@H](c3ccccc3)[C@H](C)OC2=O)c1OC(C)=O [compound 100] |  |  | > 70 |  | > 70 | A (>70) |  | > 70 |  | > 70 | A (>70)
